{"source": "patent US10472635B2", "about": "“Methods of treating brain edema” (priority 2015, dated 2019)", "key": {"[1]": {"tested_on": "cortical neurons in brain slices", "experiment": "Neuronal swelling imaging assay in brain slices (cross sectional area of CoroNa-stained soma, two-photon)", "type": "cell-based, rat"}, "[2]": {"tested_on": "neuronal [Na^+]i in brain slices", "experiment": "Neuronal [Na+]i by CoroNa Green fluorescence / two-photon FLIM", "type": "cell-based, rat", "settings": "CoroNa signal; TTX 1 μM; DIDS 250 μM"}, "rat hippocampal slices": {"tested_on": "rat hippocampal slices", "experiment": "LDH release cell death assay in hippocampal slices", "type": "cell-based"}, "[3]": {"tested_on": "voltage-dependent Cl^− current in layer 4 cortical neurons", "experiment": "Whole-cell voltage clamp of depolarization-activated Cl- current", "type": "cell-based, rat", "settings": "depolarization to −20 mV or greater; cocktail of channel blockers; GlyH-101 by dialysis", "description": "Electrophysiology: Whole-cell recordings were performed in the presence of antagonists of GABAA (10 μM picrotoxin), AMPA/kainite (10 μM 6-cyano-7-nitoquinoxaline-2,3-dione—CNQX), and NMDA (2R-amino-5-phosphonovaleric acid—APV) receptors. 60 μM cadmium, 50 μM nickel and 100 μM 4AP (4-aminopyridine) were used to block voltage-gated calcium channels and A-type potassium channels. Whole-cell voltage-clamp recordings from cortical neurons were carried out at room temperature while the recording chamber was perfused with ACSF at 1-1.5 ml min-1. Recordings were made using a MultiClamp 700B amplifier controlled by Clampex 10.2 via a Digidata 1440A data acquisition system with 3-5M ? glass electrodes. The pipette solution containing (in m ? ): 108 CsCl, 8 TEA-Cl, 8 NaGluc, 1 CsEGTA, 4 K-ATP, 0.3 Na-GTP, 10 Hepes, 2MgCl2 (pH 7.2 with CsOH, 286 mosmol 1-1). Normal ACSF contained (in mM): 126 NaCl, 26 NaHCO3, 10 glucose, 2 MgCl2, 1.25 NaH2PO4, 2.5 KCl, 2.0 CaCl2 (pH 7.25, 310 mosmol 1-1). NaCl was replaced with 126 mM Na-isethionate in the low-chloride ACSF. Recordings where the series resistance varied more than 10% were rejected. Data were analyzed with Clampfit 10.0.\nThe opening of Na^+ permeable channels causes both [Na^+]i accumulation and neuronal depolarization. […] However progressive accumulation of extracellular K^+ could lead to further depolarization of the membrane. […]"}, "VRAC": {"tested_on": "VRAC", "settings": "cited from earlier work"}, "Maxi-Anion Channel": {"tested_on": "Maxi-Anion Channel", "settings": "cited from earlier work"}, "SLC4-A3, A8, A10": {"tested_on": "SLC4-A3, A8, A10", "settings": "cited from earlier work"}, "SLC26A11": {"target": "T1, SLC26A11 (Homo sapiens, UniProt Q86WA9)", "T1 sequence (Q86WA9 1-606)": "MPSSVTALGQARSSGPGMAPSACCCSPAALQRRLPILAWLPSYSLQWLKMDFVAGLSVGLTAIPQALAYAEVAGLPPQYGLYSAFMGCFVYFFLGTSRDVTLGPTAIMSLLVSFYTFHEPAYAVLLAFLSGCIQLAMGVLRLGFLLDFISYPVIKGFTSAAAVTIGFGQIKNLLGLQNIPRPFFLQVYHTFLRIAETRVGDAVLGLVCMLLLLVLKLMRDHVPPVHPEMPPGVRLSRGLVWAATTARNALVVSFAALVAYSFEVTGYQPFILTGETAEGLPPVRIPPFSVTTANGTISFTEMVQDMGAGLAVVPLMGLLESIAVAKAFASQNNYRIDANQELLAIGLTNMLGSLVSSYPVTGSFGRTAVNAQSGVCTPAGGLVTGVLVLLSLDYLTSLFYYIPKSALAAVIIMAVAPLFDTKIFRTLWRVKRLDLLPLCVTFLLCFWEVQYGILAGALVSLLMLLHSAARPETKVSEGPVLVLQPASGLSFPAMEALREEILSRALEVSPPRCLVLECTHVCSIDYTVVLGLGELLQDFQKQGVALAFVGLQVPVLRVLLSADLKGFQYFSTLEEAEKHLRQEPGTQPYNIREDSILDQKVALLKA", "settings": "cited from earlier work"}}, "data": [{"smiles": "O=S(=O)(O)c1cc(N=C=S)ccc1C=Cc1ccc(N=C=S)cc1S(=O)(=O)O", "note": "[DIDS]", "values": [{"measurement": "effect on veratridine-induced neuronal swelling", "setting": "[1]; 22-24 °C, antagonist bath applied and in puffing pipette, DIDS 250 μM, NPPB 200 μM, TTX 1 μM", "value": "reduced the swelling"}, {"measurement": "effect on veratridine-stimulated neuronal swelling at 37 °C", "setting": "[1]; 37 °C, Calcein green-AM", "value": "block"}, {"measurement": "effect on NMDA-induced neuronal swelling", "setting": "[1]; DIDS 250 μM, 500 μM, 1 mM, d-APV 100 μM", "value": "blocked NMDA-evoked neuronal swelling in a dose-dependent manner"}, {"measurement": "effect on veratridine-induced [Na+]i increase", "setting": "[2]", "value": "not affected"}, {"measurement": "effect on veratridine-induced cell death (LDH release)", "setting": "rat hippocampal slices; 50 μM veratridine", "value": "prevented cell death"}, {"measurement": "effect on NMDA-induced cell death (LDH release), Ca2+-independent", "setting": "rat hippocampal slices; NMDA in Ca2+ free extracellular solution", "value": "blocked"}, {"measurement": "effect on NMDA-induced cell death (LDH release), Ca2+-dependent", "setting": "rat hippocampal slices; NMDA with extracellular Ca2+ present, reduced extracellular Na+", "value": "not blocked"}, {"measurement": "effect on non-inactivating Cl- current elicited by depolarization", "setting": "[3]", "value": "blocked"}, {"measurement": "concentration (antagonist sensitivity of channel/transporter)", "setting": "VRAC", "value": "100 to 400", "unit": "µM"}, {"measurement": "concentration (antagonist sensitivity of channel/transporter)", "setting": "Maxi-Anion Channel", "value": 100, "unit": "µM"}, {"measurement": "concentration (antagonist sensitivity of channel/transporter)", "setting": "SLC4-A3, A8, A10", "value": "0.1 to 0.5", "unit": "mM"}, {"measurement": "concentration (antagonist sensitivity of channel/transporter)", "setting": "SLC26A11", "value": "0.5 to 1", "unit": "mM"}]}]}
